Each block holds one molecule with its values, some of them ahead of it.
Tests used:
iNOS and COX2 binding = biological target: T1, iNOS and COX2 binding (Mus musculus, UniProt P29477+Q05769); assay: Co-immunoprecipitation of iNOS and COX2 in LPS/IFNγ-induced RAW264.7 cells; format: cell-based, murine
T1 construct: endogenous in cells; host or cells: RAW264.7 murine macrophages induced with LPS/IFNγ

COX2 [1] = assay: S-nitrosylation of COX2 in RAW264.7 cells treated with LPS/IFNγ (biotin switch and fluorometric detection); format: cell-based, murine; conditions: 1400W 100 μM, fragment transfected
Experimental: (§1) S-nitrosylation assay. Cells were homogenized by 26G needle in HEN ([…] Hepes-NaOH pH 7.7, 1 mM EDTA, 0.1 mM Neocuproine) buffer and then centrifuged at 1000 g for 10 min at 4° C. Cells lysates (240 μg) was added 4 vol of blocking buffer (9 vol of HEN buffer plus 1 vol 25% SDS, adjusted to 20 mM MMTS with a 2 M stock prepared in dimethylformamide (DMF)) at 50° C. for 20 min with frequent vortexing. The MMTS was then removed by desalting three times with the MicroBioSpin6 column (Bio-Rad, Hercules, Calif.) pre-equilibrated in HEN buffer. To the eluate was added biotin-HPDP prepared fresh as a 4 mM stock in DMSO from a 50 mM stock suspension in DMF. Sodium ascorbate was added to a final concentration of 1 mM. After incubation for 1 h at 25° C., biotinylated proteins were precipitated by streptavidin-agarose beads. The streptavidin-agarose was then pelleted and washed 5 times using HENS buffer. The biotinylated proteins were eluted by SDS-PAGE sample buffer and subjected to Western-blot analysis.
Fluorometric detection of S-nitrosothiols. The methods were modified according to Cook et al.(2) RAW264.7 cells were treated with LPS/IFNγ for overnight and COX2 was immunoprecipitated by donkey anti-rat COX2 antibodies. After that the samples were reacted with 100 μM 2,3-diaminonaphthalene (DAN) in the presence of 100 μM of HgCl2 and incubated in darkness for 30 min at room temperature. The generated fluorescent compound 2,3-napththyltrazole (NAT) was then measured at an excitation wavelength of 375 nm and an emission wavelength of 450 nm.

RAW264.7 cells [2] = assay: PGE2 formation in RAW264.7 cells in response to LPS/IFNγ (PGE2 ELISA); format: cell-based, murine; conditions: for PGE2 formation in response to LPS/IFNγ: 1400W various concentrations overnight, L-NAME 500 μM, D-NAME 500 μM
Experimental: Measurement of PGE2. Cells were washed with worm PBS (×2) and incubated in the phenol free Dulbecco's modified Eagle's medium supplemented with 20 μM arachidonic acid and 3% albumin for 20 min. Media was collected and PGE2 production was measured with a PGE2 ELISA kit from Assay Design (Ann Arbor, Mich.) according to the manufacturer's instructions.

COX2 [3] = biological target: T2, COX2 (Homo sapiens, UniProt P35354); assay: S-nitrosylation of COX2 (biotin switch assay) in HEK293T cells transfected with COX2-myc; format: cell-based; conditions: for S-nitrosylation of COX2 by NO donors and H2O2: HEK293T cells transfected with COX2-myc, biotin switch, GSNO 100 μM, SNP 100 μM, Spermine-NO 100 μM, DETA-NO 500 μM
T2 construct: myc; expressed in transfected cells; host or cells: HEK293T
T2 sequence (P35354 18-604): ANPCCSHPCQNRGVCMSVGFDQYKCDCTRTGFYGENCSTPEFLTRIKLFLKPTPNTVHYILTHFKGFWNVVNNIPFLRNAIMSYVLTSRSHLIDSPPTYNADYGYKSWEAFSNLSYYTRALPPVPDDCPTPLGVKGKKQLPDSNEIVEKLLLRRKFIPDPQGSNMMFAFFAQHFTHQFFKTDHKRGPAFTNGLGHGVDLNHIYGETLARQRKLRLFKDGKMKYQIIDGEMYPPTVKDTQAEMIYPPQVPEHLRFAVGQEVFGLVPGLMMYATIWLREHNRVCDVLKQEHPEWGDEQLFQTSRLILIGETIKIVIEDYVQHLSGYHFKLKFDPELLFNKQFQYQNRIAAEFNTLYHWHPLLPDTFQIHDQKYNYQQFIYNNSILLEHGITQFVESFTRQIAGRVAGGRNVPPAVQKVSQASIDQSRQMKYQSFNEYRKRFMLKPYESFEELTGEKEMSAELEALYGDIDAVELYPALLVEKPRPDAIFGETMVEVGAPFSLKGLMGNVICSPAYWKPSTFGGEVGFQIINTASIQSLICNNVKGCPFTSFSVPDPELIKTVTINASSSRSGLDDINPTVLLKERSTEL
From the text: Plasmid Constructions. Full length human cyclooxygenase2-encoding gene (gene bank sequence NM_000963) was purchased from ATCC in pCMV•SPORT6 vector. The sequence was amplified by PCR using primers harboring Sal1/Not1 restriction sites and cloned into the pCMV-Myc vector (Clontech, Palo Alto, Calif.). The murine inducible nitric oxide synthase (accession number NM_010927) cloned into the pcDNA3.1+vector (Invitrogen, Carlsbad, Calif.).
as §1

COX2 [4] = biological target: T2, COX2; assay: COX2 enzyme activity in cell lysate of COX2-myc transfected HEK293T cells; format: biochemical
Experimental: COX2 enzymatic assay. […] COX2 enzymatic activity was measured with a COX assay kit (Cayman Biochemical Inc, Ann Arbor, Mich.) according to the manufacturer's instructions.
To determine whether S-nitrosylation of COX2 alters enzyme activity, we examined COX2 enzyme activity in HEK293T cells transfected with COX2-myc.

RAW264.7 cells [5] = assay: Confocal immunofluorescence of endogenous PGE2 in RAW264.7 cells transfected with COX2-myc fragments; format: cell-based, murine; conditions: RAW264.7 cells activated by LPS/IFNγ
Experimental: Immunohistochemistry. RAW264.7 cells were transfected with deletion constructs of COX2. Cells were fixed in 4% paraformaldehyde in PBS for 5 min, permeablized in 0.1% Triton X-100 for 10 s, and then rinsed twice in PBS. Coverslips were then blocked in 10% goat serum at room temperature for 1 h and incubated with PGE2 (Cayman Biochemical Inc, Ann Arbor, Mich.) and myc antibodies for 24 hr at 4° C. Rhodamine or fluorescein-conjugated secondary antibodies (Jackson Immunochemicals, West Grove, Pa.) were then added at 10 μg/ml for 1 hr at room temperature as indicated. Coverslips were mounted in ProLong (Molecular Probes, Eugene, Oreg.). Confocal microscopy, in which the immunofluorescent staining is superimposed on phase contrast images, employed a Noran OZ (Noran Instruments, Middleton, Wis.) confocal laser-scanning system, fitted to an Olympus IX-50 fluorescence microscope.

Co-precipitation of iNOS and COX2 (iNOS and COX2 binding; RAW264.7 cells induced by LPS/IFNγ, inhibitor 100 μM, immunoprecipitation with anti-iNOS or anti-COX2 antibodies): unaffected
Molecule: CC(=N)NCc1cccc(CN)c1 [1400W]
S-nitrosylation of COX2 (COX2 [1]): prevented
PGE2 formation in response to LPS/IFNγ (RAW264.7 cells [2]; RAW264.7 cells): inhibited

Molecule: COC(=O)[C@H](N)CCCN=C(N)N[N+](=O)[O-] [D-NAME]
PGE2 formation in response to LPS/IFNγ (RAW264.7 cells [2]; RAW264.7 cells): not

S-nitrosylation of COX2 by NO donors and H2O2 (COX2 [3]): elicit S-nitrosylation
Molecule: NCCN(CCN)/[N+]([O-])=N/O [DETA-NONOate]

Molecule: N[C@@H](CCC(=O)N[C@@H](CSN=O)C(=O)NCC(=O)O)C(=O)O [GSNO, nitrosoglutathione]
S-nitrosylation of COX2 by NO donors and H2O2 (COX2 [3]): elicit S-nitrosylation

Molecule: OO [H2O2]
S-nitrosylation of COX2 by NO donors and H2O2 (COX2 [3]): does not elicit S-nitrosylation

Molecule: COC(=O)[C@@H](N)CCCNC(=N)N[N+](=O)[O-] [L-NAME, nitro-argininemethylester]
PGE2 formation in response to LPS/IFNγ (RAW264.7 cells [2]; RAW264.7 cells): inhibition of PGE2 formation

Molecule: N=C(N)NCCC[C@H](N)C(=O)O [L-arginine]
Effects of L-NAME on PGE2 formation (RAW264.7 cells [2]; RAW264.7 cells, LPS/IFNγ, L-NAME 500 μM + L-Arg 1 mM): reversed

S-nitrosylation of COX2-myc in the presence of SNP (COX2 [3]; SNP 200 μM, ASC 500 μM): reversed
Increase of COX2 activity by SNP (COX2 [4]; SNP 200 μM plus ascorbate 500 μM): prevents the increase
COX2 activity in preparations not treated by SNP (COX2 [4]; ascorbate 500 μM, no SNP): fails to affect
Molecule: O=C1O[C@H]([C@@H](O)CO)C(O)=C1O [ascorbic acid]

S-nitrosylation of COX2 by NO donors and H2O2 (COX2 [3]): elicit S-nitrosylation
Molecule: NCCCNCCCCN(CCCN)/[N+]([O-])=N/O [spermine-NO]

Molecule: hemoglobin: sequesters freely diffusible NO
S-nitrosylation of COX2 (COX2 [1]): fails to alter

B1: 1-483: myc-tagged fragment of COX2 comprising amino acids 1-483, which does not bind iNOS (protein)
chain: ANPCCSHPCQNRGVCMSVGFDQYKCDCTRTGFYGENCSTPEFLTRIKLFLKPTPNTVHYILTHFKGFWNVVNNIPFLRNAIMSYVLTSRSHLIDSPPTYNADYGYKSWEAFSNLSYYTRALPPVPDDCPTPLGVKGKKQLPDSNEIVEKLLLRRKFIPDPQGSNMMFAFFAQHFTHQFFKTDHKRGPAFTNGLGHGVDLNHIYGETLARQRKLRLFKDGKMKYQIIDGEMYPPTVKDTQAEMIYPPQVPEHLRFAVGQEVFGLVPGLMMYATIWLREHNRVCDVLKQEHPEWGDEQLFQTSRLILIGETIKIVIEDYVQHLSGYHFKLKFDPELLFNKQFQYQNRIAAEFNTLYHWHPLLPDTFQIHDQKYNYQQFIYNNSILLEHGITQFVESFTRQIAGRVAGGRNVPPAVQKVSQASIDQSRQMKYQSFNEYRKRFMLKPYESFEELTGEKEMSAELEALYGD
Influence on PGE2 formation (RAW264.7 cells [2]; fragment transfected into RAW264.7 cells, LPS/IFNγ): fails to influence
PGE2 expression level in transfected cell compared to non-transfected cell (immunofluorescent staining) (RAW264.7 cells [5]): does not show a reduction

Co-precipitation of iNOS and COX2 (iNOS and COX2 binding; fragment transfected into RAW264.7 cells, LPS/IFNγ, immunoprecipitation with anti-iNOS): abolishes
B2: 484-604: dominant-negative myc-tagged fragment of COX2, amino acids 484-604, which binds iNOS (protein)
chain: IDAVELYPALLVEKPRPDAIFGETMVEVGAPFSLKGLMGNVICSPAYWKPSTFGGEVGFQIINTASIQSLICNNVKGCPFTSFSVPDPELIKTVTINASSSRSGLDDINPTVLLKERSTEL
S-nitrosylation of COX2 (COX2 [1]): decreases
Reduction of PGE2 formation (RAW264.7 cells [2]; dominant-negative fragment transfected into RAW264.7 cells, LPS/IFNγ): more than 50%
PGE2 expression level in transfected cell compared to non-transfected cell (immunofluorescent staining) (RAW264.7 cells [5]): reduction

— US7358237B2, “Inducible nitric oxide synthase binds, S-nitrosylates, and activates cyclooxygenase-2” (The Johns Hopkins University, priority 2005, dated 2008)
